Experimental findings from patent US12709610B2, “Preparation method for hepatitis B virus nucleocapsid inhibitor” (Shanghai Zhimeng Biopharma, Inc., priority 2021, dated 2026) are described below.

This series is described as follows: Ames assay (genotoxicity). The note with it: synthetic intermediates of the last three steps. It is filed as cell-based. On the technique in general: The Ames test detects mutagens through reverse mutation in bacteria.

Take `NC(=O)Nc1ccc(CCN2C(=O)CO[C@@H]2c2cn(-c3ccc(Br)cc3)nc2-c2ccc(F)cc2)cc1I` [Compound 9]: the Ames assay result is given as “negative”.

Regarding `NC(=O)Nc1ccc(CCN2C(=O)CO[C@@H]2c2cn(-c3ccc(Br)cc3)nc2-c2ccc(F)cc2)cc1` [Compound 17], the Ames assay result is “negative”.
